# Test results: US9593149B2, “Amylin and calcitonin receptor agonist” (Novo Nordisk A/S, priority 2014, dated 2017)
# Numbered stars: 1 amine (or outer) side, 2 acyl side, 3 side chain; on linkers, the order of the positions; unused ones are H or OH. Peptide text beside a SMILES is read from it. * marks the point of attachment. C20 diacid = O=C(O)CCCCCCCCCCCCCCCCCCC(=O)*; C18 diacid = O=C(O)CCCCCCCCCCCCCCCCC(=O)*; γGlu = O=C(O)[C@H](CCC(=O)[*:2])N[*:1]
# Assay: Assay (IV) determination of solubility
# Type: physicochemical
# Procedure: Assay (IV)—Determination of Solubility
# The mimylin peptide was dissolved in water at ˜500 nmol/ml and mixed 1:1 with a series of buffers (100 mM glycylglycine pH 3.0, 100 mM glycylglycine pH 4.0, 100 mM glycylglycine pH 5.0, 100 mM bistrispropane pH 6.0, 100 mM bistrispropane pH 6.5, 100 mM bistrispropane pH 7.0, 100 mM bistrispropane pH 7.5, 100 mM bistrispropane pH 8.0).
Structure (SMILES),Solubility (pH 3.0),solubility at 18 h (pH 4.0) [µM],Solubility (pH 6.0),Solubility (pH 6.5),Solubility (pH 7.0),Solubility (pH 7.5),Solubility (pH 8.0),Solubility (pH 4.0),Solubility (pH 5.0),solubility at 18 h (pH 5.0) [µM]
"CC(C)C[C@H](NC(=O)[C@H](C)NC(=O)[C@H](C)NC(=O)[C@@H](NC(=O)[C@H](CO)NC(=O)[C@H](CC(C)C)NC(=O)[C@H](CCC(N)=O)NC(=O)[C@H](CO)NC(=O)[C@H](C)NC(=O)CC[C@H](NC(=O)CCCCCCCCCCCCCCCCC(=O)O)C(=O)O)[C@@H](C)O)C(=O)NCC(=O)N[C@@H](CCCNC(=N)N)C(=O)N[C@@H](CC(C)C)C(=O)N[C@@H](CO)C(=O)N[C@@H](C)C(=O)N[C@@H](CCC(=O)O)C(=O)N[C@@H](CC(C)C)C(=O)N[C@@H](Cc1cnc[nH]1)C(=O)N[C@@H](CCC(=O)O)C(=O)N[C@@H](CC(C)C)C(=O)N[C@@H](C)C(=O)N[C@H](C(=O)N[C@@H](CC(C)C)C(=O)N1CCC[C@H]1C(=O)N[C@@H](CCCNC(=N)N)C(=O)N[C@H](C(=O)N[C@@H](CCC(=O)O)C(=O)N[C@H](C(=O)NCC(=O)N[C@@H](CO)C(=O)NCC(=O)N[C@@H](CO)C(=O)N1CCC[C@H]1C(N)=O)[C@@H](C)O)[C@@H](C)O)[C@@H](C)O [compound 78, [N-terminal(C18 diacid-gGlu), des1, 4Q, 30S, 31G]mimylin] ({C18 diacid-γGlu}-ASQLSTAALGRLSAELHELATLPRTETGSGSP-NH2)",≧200 μM,,≧200 μM,≧200 μM,≧200 μM,≧200 μM,≧200 μM,≧200 μM,≧200 μM,
"CC(C)C[C@H](NC(=O)[C@H](CO)NC(=O)CNC(=O)[C@H](CO)NC(=O)CNC(=O)[C@@H](NC(=O)[C@H](CCC(=O)O)NC(=O)[C@@H](NC(=O)[C@H](CCCNC(=N)N)NC(=O)[C@@H]1CCCN1C(=O)[C@H](CC(C)C)NC(=O)[C@@H](NC(=O)[C@H](C)NC(=O)[C@H](CC(C)C)NC(=O)[C@H](CCC(=O)O)NC(=O)[C@H](Cc1cnc[nH]1)NC(=O)[C@H](CC(C)C)NC(=O)[C@H](CCC(=O)O)NC(=O)[C@H](C)NC(=O)[C@H](CO)NC(=O)[C@H](CC(C)C)NC(=O)[C@H](CCCNC(=N)N)NC(=O)CNC(=O)[C@H](CC(C)C)NC(=O)[C@H](C)NC(=O)[C@H](C)NC(=O)[C@@H](NC(=O)[C@H](CO)NC(=O)[C@H](CC(C)C)NC(=O)[C@H](CCC(=O)O)NC(=O)[C@H](CO)NC(=O)[C@H](C)NC(=O)CC[C@H](NC(=O)CCCCCCCCCCCCCCCCCCC(=O)O)C(=O)O)[C@@H](C)O)[C@@H](C)O)[C@@H](C)O)[C@@H](C)O)C(N)=O [compound 62, [N-terminal(C20 diacid-gGlu), des1, 30S, 31G, 33L]mimylin] ({C20 diacid-γGlu}-ASELSTAALGRLSAELHELATLPRTETGSGSL-NH2)",≧200 μM,,≧200 μM,≧200 μM,≧200 μM,≧200 μM,≧200 μM,≧200 μM,≧200 μM,
"CC(C)C[C@H](NC(=O)[C@H](C)NC(=O)[C@H](C)NC(=O)[C@@H](NC(=O)[C@H](CO)NC(=O)[C@H](CC(C)C)NC(=O)[C@H](CCC(=O)O)NC(=O)[C@H](CO)NC(=O)[C@H](C)NC(=O)CC[C@H](NC(=O)CCCCCCCCCCCCCCCCCCC(=O)O)C(=O)O)[C@@H](C)O)C(=O)NCC(=O)N[C@@H](CCCNC(=N)N)C(=O)N[C@@H](CC(C)C)C(=O)N[C@@H](CO)C(=O)N[C@@H](C)C(=O)N[C@@H](CCC(=O)O)C(=O)N[C@@H](CC(C)C)C(=O)N[C@@H](Cc1cnc[nH]1)C(=O)N[C@@H](CCC(=O)O)C(=O)N[C@@H](CC(C)C)C(=O)N[C@@H](C)C(=O)N[C@H](C(=O)N[C@@H](CC(C)C)C(=O)N1CCC[C@H]1C(=O)N[C@@H](CCCNC(=N)N)C(=O)N[C@H](C(=O)N[C@@H](CCC(=O)O)C(=O)N[C@H](C(=O)NCC(=O)N[C@@H](CO)C(=O)NCC(=O)N[C@@H](CO)C(=O)NCC(N)=O)[C@@H](C)O)[C@@H](C)O)[C@@H](C)O [compound 64, [N-terminal(C20 diacid-gGlu), des1, 30S, 31G, 33G]mimylin] ({C20 diacid-γGlu}-ASELSTAALGRLSAELHELATLPRTETGSGSG-NH2)",≧200 μM,,≧200 μM,≧200 μM,≧200 μM,≧200 μM,≧200 μM,≧200 μM,≧200 μM,

# More lines, now with the values ahead:
Solubility (pH 3.0),solubility at 18 h (pH 4.0) [µM],Solubility (pH 6.0),Solubility (pH 6.5),Solubility (pH 7.0),Solubility (pH 7.5),Solubility (pH 8.0),Solubility (pH 4.0),Solubility (pH 5.0),solubility at 18 h (pH 5.0) [µM],Structure (SMILES)
≧200 μM,31,≧200 μM,≧200 μM,≧200 μM,≧200 μM,≧200 μM,,,,"CC(C)C[C@H](NC(=O)CC[C@H](NC(=O)CCCCCCCCCCCCCCCCCCC(=O)O)C(=O)O)C(=O)N[C@@H](CO)C(=O)NCC(=O)N[C@@H](CC(C)C)C(=O)N[C@@H](CO)C(=O)N[C@H](C(=O)N[C@@H](C)C(=O)N[C@H](C(=O)N[C@@H](CC(C)C)C(=O)NCC(=O)N[C@@H](CCCNC(=N)N)C(=O)N[C@@H](CC(C)C)C(=O)N[C@@H](CO)C(=O)N[C@@H](CCC(N)=O)C(=O)N[C@@H](CCC(=O)O)C(=O)N[C@@H](CC(C)C)C(=O)N[C@@H](Cc1cnc[nH]1)C(=O)N[C@@H](CCC(=O)O)C(=O)N[C@@H](CC(C)C)C(=O)N[C@@H](CCC(N)=O)C(=O)N[C@H](C(=O)N[C@@H](Cc1ccc(O)cc1)C(=O)N1CCC[C@H]1C(=O)N[C@@H](CCCNC(=N)N)C(=O)N[C@H](C(=O)N[C@@H](CCC(=O)O)C(=O)N[C@H](C(=O)NCC(=O)N[C@@H](CO)C(=O)N[C@@H](CCC(N)=O)C(=O)N[C@H](C(=O)N[C@@H](Cc1ccc(O)cc1)C(N)=O)[C@@H](C)O)[C@@H](C)O)[C@@H](C)O)[C@@H](C)O)C(C)C)[C@@H](C)O [compound 127, [N-terminal(C20 diacid-gGlu), des1, 2L, 4G, 9V, 15Q, 21Q, 23Y, 30S, 31Q, 32T, 33Y]mimylin] ({C20 diacid-γGlu}-LSGLSTAVLGRLSQELHELQTYPRTETGSQTY-NH2)"
≧200 μM,132,≧200 μM,≧200 μM,≧200 μM,≧200 μM,≧200 μM,,,22,"CC(C)C[C@H](NC(=O)CNC(=O)[C@H](CO)NC(=O)[C@H](C)NC(=O)CC[C@H](NC(=O)CCCCCCCCCCCCCCCCCCC(=O)O)C(=O)O)C(=O)N[C@@H](CO)C(=O)N[C@H](C(=O)N[C@@H](C)C(=O)N[C@@H](C)C(=O)N[C@@H](CC(C)C)C(=O)NCC(=O)N[C@@H](CCCNC(=N)N)C(=O)N[C@@H](CC(C)C)C(=O)N[C@@H](CO)C(=O)N[C@H](C(=O)N[C@@H](CCC(=O)O)C(=O)N[C@@H](CC(C)C)C(=O)N[C@@H](Cc1cnc[nH]1)C(=O)N[C@@H](CCC(=O)O)C(=O)N[C@@H](CC(C)C)C(=O)N[C@@H](CCC(=O)O)C(=O)N[C@H](C(=O)N[C@@H](Cc1ccc(O)cc1)C(=O)N1CCC[C@H]1C(=O)N[C@@H](CCCNC(=N)N)C(=O)N[C@H](C(=O)N[C@@H](CCC(=O)O)C(=O)N[C@H](C(=O)NCC(=O)N[C@@H](CO)C(=O)NCC(=O)N[C@H](C(=O)N[C@@H](Cc1ccc(O)cc1)C(N)=O)[C@@H](C)O)[C@@H](C)O)[C@@H](C)O)[C@@H](C)O)[C@@H](C)O)[C@@H](C)O [compound 112, [N-terminal(C20 diacid-gGlu), des1, 4G, 15T, 21E, 23Y, 30S, 31G, 32T, 33Y]mimylin] ({C20 diacid-γGlu}-ASGLSTAALGRLSTELHELETYPRTETGSGTY-NH2)"
≧200 μM,,≧200 μM,≧200 μM,≧200 μM,≧200 μM,≧200 μM,≧200 μM,≧200 μM,,"CC(C)C[C@H](NC(=O)[C@H](C)NC(=O)[C@H](C)NC(=O)[C@@H](NC(=O)[C@H](CO)NC(=O)[C@H](CC(C)C)NC(=O)[C@H](CCC(=O)O)NC(=O)[C@H](CO)NC(=O)[C@H](C)NC(=O)CC[C@H](NC(=O)CCCCCCCCCCCCCCCCCCC(=O)O)C(=O)O)[C@@H](C)O)C(=O)NCC(=O)N[C@@H](CCCCN)C(=O)N[C@@H](CC(C)C)C(=O)N[C@@H](CO)C(=O)N[C@@H](C)C(=O)N[C@@H](CCC(=O)O)C(=O)N[C@@H](CC(C)C)C(=O)N[C@@H](Cc1cnc[nH]1)C(=O)N[C@@H](CCC(=O)O)C(=O)N[C@@H](CC(C)C)C(=O)N[C@@H](C)C(=O)N[C@H](C(=O)N[C@@H](Cc1ccc(O)cc1)C(=O)N1CCC[C@H]1C(=O)N[C@@H](CCCCN)C(=O)N[C@H](C(=O)N[C@@H](CCC(=O)O)C(=O)N[C@H](C(=O)NCC(=O)N[C@@H](CO)C(=O)NCC(=O)N[C@@H](CO)C(=O)N[C@@H](Cc1ccc(O)cc1)C(N)=O)[C@@H](C)O)[C@@H](C)O)[C@@H](C)O [compound 101, [N-terminal(C20 diacid-gGlu), des1, 12K, 23Y, 25K, 30S, 31G, 33Y]mimylin] ({C20 diacid-γGlu}-ASELSTAALGKLSAELHELATYPKTETGSGSY-NH2)"
